From patent publication USRE37919E1, “Recombinant DNA method for production of parathyroid hormone” (The General Hospital Corporation, priority 1989, dated 2002)
Where two headings read alike, the source gives them in different places.

Assays:
[1] = system: opossum kidney cells; test: Binding to opossum kidney cells; settings: FIG. 3
Description: (§1) The recombinant peptide produced as described in Example 1 above was tested for it binding to two cells types.

[2] = system: UMR rat osteosarcoma cell line; test: Binding to UMR rat osteosarcoma cell line; settings: FIG. 4
Description: as §1

[3] = system: UMR cells; test: Cyclic AMP response of UMR tumor cells; assay type: cell-based, rat; settings: FIG. 6, read-out: EC50 of cyclic AMP stimulation
Text: (§2) Therefore, the recombinant peptide had PTH biological activity which is largely indistinguishable from that of a known active fragment.

[4] = system: opossum kidney cells; assay type: cell-based
Text: as §2

[5] = target: T1, PTH receptors (Homo sapiens, UniProt Q03431); settings: literature; cited from earlier work
T1 sequence (Q03431 27-593): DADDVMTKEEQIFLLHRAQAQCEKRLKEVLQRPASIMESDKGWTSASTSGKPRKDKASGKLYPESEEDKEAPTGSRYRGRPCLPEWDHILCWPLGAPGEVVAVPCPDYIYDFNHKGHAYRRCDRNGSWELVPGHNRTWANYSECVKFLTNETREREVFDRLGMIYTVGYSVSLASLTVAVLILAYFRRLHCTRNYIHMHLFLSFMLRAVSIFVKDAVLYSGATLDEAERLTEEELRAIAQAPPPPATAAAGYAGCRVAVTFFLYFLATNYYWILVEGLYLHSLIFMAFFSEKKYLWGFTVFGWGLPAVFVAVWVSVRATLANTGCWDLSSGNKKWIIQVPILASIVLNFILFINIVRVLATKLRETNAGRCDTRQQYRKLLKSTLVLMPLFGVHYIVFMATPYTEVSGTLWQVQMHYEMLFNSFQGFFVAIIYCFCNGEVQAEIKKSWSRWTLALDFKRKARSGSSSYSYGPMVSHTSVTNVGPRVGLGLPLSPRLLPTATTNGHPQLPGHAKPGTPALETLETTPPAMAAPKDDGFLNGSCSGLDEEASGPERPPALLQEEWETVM

Row | EC50 [3] [nM] | EC50 [4] [nM] | EC50 ([4]; opossum kidney cells, FIG. 5, read-out: EC50 of cyclic AMP stimulation) [nM] | Compound | half-maximal binding [1] | half-maximum value of binding [2] | PTH antagonist activity in vitro [5]
1 | ~0.1 | ~4 |  | CC[C@H](C)[C@H](NC(=O)[C@H](CCC(=O)O)NC(=O)[C@H](CO)NC(=O)[C@@H](NC(=O)[C@@H](N)CO)C(C)C)C(=O)N[C@@H](CCC(N)=O)C(=O)N[C@@H](CC(C)C)C(=O)N[C@@H](CCSC)C(=O)N[C@@H](Cc1c[nH]cn1)C(=O)N[C@@H](CC(N)=O)C(=O)N[C@@H](CC(C)C)C(=O)NCC(=O)N[C@@H](CCCCN)C(=O)N[C@@H](Cc1c[nH]cn1)C(=O)N[C@@H](CC(C)C)C(=O)N[C@@H](CC(N)=O)C(=O)N[C@@H](CO)C(=O)N[C@@H](CCSC)C(=O)N[C@@H](CCC(=O)O)C(=O)N[C@@H](CCCNC(=N)N)C(=O)N[C@H](C(=O)N[C@@H](CCC(=O)O)C(=O)N[C@@H](Cc1c[nH]c2ccccc12)C(=O)N[C@@H](CC(C)C)C(=O)N[C@@H](CCCNC(=N)N)C(=O)N[C@@H](CCCCN)C(=O)N[C@@H](CCCCN)C(=O)N[C@@H](CC(C)C)C(=O)N[C@@H](CCC(N)=O)C(=O)N[C@@H](CC(=O)O)C(=O)N[C@H](C(=O)N[C@@H](Cc1c[nH]cn1)C(=O)N[C@@H](CC(N)=O)C(=O)N[C@@H](Cc1ccccc1)C(=O)O)C(C)C)C(C)C [synthetic PTH(1-34)] | about 1 nM | about 2 nM | 
2 |  |  |  | PTH (3-34): synthetic analog of bovine PTH, recognized PTH antagonist (SEIQFMHNLGKHLSSMERVEWLRKKLQDVHNF; Parathyroid hormone; UniProt P01268 34-65, looked up, fragment) |  |  | potent PTH antagonist
3 | ~3 |  | ~10 | human parathyroid hormone 1-84 [recombinant hPTH(1-84)] | about 3 nM | about 10 nM | 
